Kd and IC50 data for 16 molecules are collected here from US20260022118A1, “HETEROCYCLIC COMPOUNDS AS NRAS INHIBITORS” (Board of Regents, The University of Texas System, priority 2023, published 2026).

Where two headings read alike, the source gives them in different places.

As a reminder, the Kd is the free concentration of one partner at which half of the binding sites on the other are occupied at equilibrium, for simple one-to-one binding. Read a high Kd as weaker binding. By IC50 is commonly meant the concentration needed to halve the response being measured.

One assay has as its target NRAS G12D C118S (Homo sapiens (Human), UniProt P01111, C118S/G12D). As to the kind of experiment: NRas G12D Surface Plasmon Resonance (SPR) binding assay. The note with it: Avi-tagged biotinylated NRAS G12D C118S on streptavidin chip, 25° C., 1:1 kinetic or steady-state fit. As for the experimental part:
NRas G12D Surface Plasmon Resonance (SPR) Binding Assay
This Example illustrates that exemplary compounds and salts thereof described herein bind to NRAS G12D as measured by surface plasmon resonance (SPR).
Two liters of 1.03× running buffer (1.03×HBS-P+pH 7.4, containing 0.0103 M HEPES, 0.1545 M NaCl, 0.0515% v/v Surfactant P20 (Cytiva®, BR100671); 5.15 mM MgCl2 (Invitrogen, AM9530G); 0.515 mM TCEP, pH 8.0 (GoldBio®, TCEP25)) was prepared and filter sterilized using a 0.22 μm filter. A 1-L volumetric flask was filled partway with this buffer. A 30-mL volumetric flask was used to measure 30 mL of 100% DMSO (Sigma Aldrich®, 41639-100ML) which was added to the 1-L flask. The solution in the 1-L flask was brought up to 1 L with 1.03× buffer, resulting in a 1.0× assay running buffer containing 1.0×HBS-P+, 5 mM MgCl2, […], and 3% DMSO. Remaining 1.03× buffer was used for preparation of samples and immobilization running buffer.
Samples were prepared in a standard conical-bottomed 384-well microplate by adding 2 μL 10 mM DMSO cpd stock to each well, followed by 8 μL DMSO. A control compound was selected based off of its relatively “fast” kinetics that could be fitted by 1:1 kinetic fitting, as well as by steady-state fitting. Control wells for periodic injection to assess protein activity throughout the assay were also assembled, by diluting 10 mM compound 1:30 in DMSO, then adding 20 μL to the appropriate wells, such that the final concentration of compound would be 10 μM, and the final concentration of DMSO would be 3%. A Biomek™ FXP Laboratory Automation Workstation was used to stamp 20 μL DMSO into all sample wells—minus the control wells—according to the plate map, and then serially dilute 1:3 by mixing and aspirating 10 μL, delivering into the 20 μL of DMSO in the next well, resulting in 10-point serial dilution curves. A Biotek™ Multiflo EL406 Washer Dispenser was used to deliver 80 μL of 1.03× buffer to the compound plate. The plate was mixed 10× by FX, then a final dilution was performed by stamping 18 μL from the compound plate into a 384-well deep-well plate that had also been previously filled with 102 μL 1.03× buffer via the Multiflo. The solution in the deep-well plate was mixed 10× by FX, then sealed with a 384-well microplate foil from Cytiva® (Cytiva® BR100577) and placed on an orbital shaker for 30 minutes at 1000 RPM to ensure complete mixing of the DMSO solution in the buffer. A solvent correction curve was also prepared by making a 4% DMSO solution in 1.03× buffer and diluting in 1.03× buffer such that there were eight solutions of decreasing DMSO concentrations resulting in a high DMSO concentration of 4% and a low concentration of 2% DMSO.
Immobilization running buffer was prepared in a 200-mL volume by diluting 1.03× running buffer prepared above to 1.0×. A Cytiva® Streptavidin chip (Cytiva®, 29104992) was docked into a Biacore™ S200 instrument, and the instrument was then primed three times into the immobilization running buffer. A protein stock of Avi-tagged NRAS G12D C118S was prepared in-house and biotinylated using the Bulk BirA: BirA biotin-protein ligase bulk reaction kit from Avidity (Avidity®, Bulk BirA). Upon completion of the biotinylation reaction, Amicon® ultra 0.5-mL Centrifugal Filters with a MWCO of 3 k Da (Millipore® UFC500396) were used to reduce the free biotin concentration below 0.1 μM in the protein sample over the course of eight desalting cycles, according to the manufacturer's protocol. Resulting protein concentration was not measured directly as an accurate protein concentration is not required for immobilizing protein on the chip surface; however, a theoretical yield of ≤1.5 mg/mL was estimated based off of retained volumes during the desalting process. Reagents for immobilization were prepared as instructed in the Biacore™ 5200 Control Software Immobilization Wizard, including solutions of 1 M NaCl in 50 mM NaOH, and 1 M NaCl in 50 mM NaOH and 50% isopropyl alcohol. […]

Assay [1] has as its system THP-1 cells expressing G12D (NRAS G12D). The assay is described as follows: Inhibition of NRAS G12D-mediated phosphorylation of ERK (AlphaLISA p-ERK1/2) in THP-1 cells. The format is cell-based. The note with it: 2 hours incubation, HBSS with 0% or 10% FBS, p-ERK1/2 (Thr202/Tyr204) AlphaLISA, read-out: pERK THP-1 IC50. As to the method: Inhibition of NRAS G12D-Mediated Phosphorylation of ERK by Exemplary Compounds of Formulas I, II, and III.
This Example illustrates that exemplary compounds and salts thereof described herein inhibit the phosphorylation of ERK downstream of NRAS G12D.
THP-1 cells (ATCC TIB-202) expressing G12D were maintained in RPMI-1640 medium supplemented with 10% fetal bovine serum (FBS), 0.05 mM 2-mercaptoethanol, and penicillin/streptomycin. Cells (20,000/well) were seeded onto a 384 well plate in 20 μL of HBSS supplemented with 0% or 10% FBS. Cells were incubated in the absence or presence of various concentrations of test compound (final 1% DMSO) for 2 hours. p-ERK expression was assessed using the AlphaLISA SureFire Ultra p-ERK1/2 (Thr202/Tyr204) (PerkinElmer®, ALSU-PERK-A10K) following manufacturer recommendation. Plates were read on a PerkinElmer® Envision Multimode plate reader. Dose-response curves were analyzed using IC50 regression curve fitting (GeneData Screener). Curves were plotted as a percent control and normalized by high controls without inhibitor (100%), and low controls (0%) containing 1 μM of trametinib, a potent MEK inhibitor.
In general terms: Bead proximity is the source of the signal in Alpha formats.

Sequence of NRAS G12D C118S (P01111 whole entry G12D/C118S): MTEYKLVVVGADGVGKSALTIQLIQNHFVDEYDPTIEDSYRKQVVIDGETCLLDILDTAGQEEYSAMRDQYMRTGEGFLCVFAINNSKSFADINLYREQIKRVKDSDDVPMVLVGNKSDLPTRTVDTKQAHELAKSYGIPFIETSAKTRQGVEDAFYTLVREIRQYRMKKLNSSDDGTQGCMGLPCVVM

For `C#Cc1c(F)ccc2cc(O)cc(-c3ncc4c(N5CC6CC5CN6)nn(C)c4c3F)c12` (centres unmarked) [Example 28, 4-(3-(2,5-diazabicyclo[2.2.1]heptan-2-yl)-7-fluoro-1-methyl-1H-pyrazolo[4,3-c]pyridin-6-yl)-5-ethynyl-6-fluoronaphthalen-2-ol], on NRAS G12D C118S, the Kd stood at 1.1 µM. Moreover, in assay [1] (Homo sapiens, THP-1, 2 h), the IC50 turned out to be 11.9 µM.
`C#Cc1c(F)ccc2cc(O)cc(-c3ncc4c(c(C)cn4C4=CC5CCC4CN5)c3F)c12` (centres unmarked) [Example 38, 4-[1-(2-azabicyclo[2.2.2]oct-5-en-5-yl)-4-fluoro-3-methyl-pyrrolo[2,3-c]pyridin-5-yl]-5-ethynyl-6-fluoro-naphthalen-2-ol]: on NRAS G12D C118S, the Kd turned out to be 3.99 µM. The IC50 in assay [1] (Homo sapiens, THP-1, 2 h) was determined as 18.3 µM.
Taken in the same sequence, the figures for `C#Cc1c(F)ccc2cc(O)cc(-c3ncc4c([C@H]5[C@@H]6CNC(C(=O)OC)[C@@H]65)nn(C)c4c3F)c12` (stereo partly drawn) [Example 96, methyl (1S,5R,6S)-6-(6-(8-ethynyl-7-fluoro-3-hydroxynaphthalen-1-yl)-7-fluoro-1-methyl-1H-pyrazolo[4,3-c]pyridin-3-yl)-3-azabicyclo[3.1.0]hexane-2-carboxylate] were 0.904 µM and 0.36 µM.
Turning to `C#Cc1c(F)ccc2cc(O)cc(-c3ncc4c(N5CC6CCCC(C5)N6)nn(C)c4c3F)c12` [Example 31, 4-[3-(3,9-diazabicyclo[3.3.1]nonan-3-yl)-7-fluoro-1-methyl-pyrazolo[4,3-c]pyridin-6-yl]-5-ethynyl-6-fluoro-naphthalen-2-ol], the Kd at NRAS G12D C118S worked out at 3.43 µM. Further, in assay [1] (Homo sapiens, THP-1, 2 h), the IC50 was 18.1 µM.
`C#Cc1c(F)ccc2cc(O)cc(-c3nc(CC)c4c([C@H]5[C@@H]6CNC[C@@H]65)nn(C5CC5)c4c3F)c12` [Example 72, 4-(3-((1R,5S,6r)-3-azabicyclo[3.1.0]hexan-6-yl)-1-cyclopropyl-4-ethyl-7-fluoro-1H-pyrazolo[4,3-c]pyridin-6-yl)-5-ethynyl-6-fluoronaphthalen-2-ol] came in with a Kd on NRAS G12D C118S of 0.000594 µM. In addition, the IC50 in assay [1] (Homo sapiens, THP-1, 2 h) worked out at 0.0244 µM.
Molecule `C#Cc1c(F)ccc2cc(O)cc(-c3ncc4c(N5CC6CCC(C5)N6)nn(CC)c4c3F)c12` [Example 8, 4-(3-(3,8-diazabicyclo[3.2.1]octan-3-yl)-1-ethyl-7-fluoro-1H-pyrazolo[4,3-c]pyridin-6-yl)-5-ethynyl-6-fluoronaphthalen-2-ol] returned a Kd at NRAS G12D C118S of 1.92 µM. Moreover, in assay [1] (Homo sapiens, THP-1, 2 h), the IC50 stood at 11.1 µM.
On to `C#Cc1c(F)ccc2cc(O)cc(-c3ncc4c(C5CC6CCC5CN6)nn(C)c4c3F)c12` (centres unmarked) [Example 44, 4-[3-(2-azabicyclo[2.2.2]octan-5-yl)-7-fluoro-1-methyl-pyrazolo[4,3-c]pyridin-6-yl]-5-ethynyl-6-fluoro-naphthalen-2-ol], for which the affinity at NRAS G12D C118S, expressed as Kd, was 0.201 µM. For the same molecule, the IC50 in assay [1] was 6.74 µM.
`C#Cc1c(F)ccc2cc(O)cc(-c3ncc4c([C@H]5[C@@H]6CNC[C@@H]65)nn(C(C)C)c4c3F)c12` [Example 24, 4-(3-((1R,5S,6r)-3-azabicyclo[3.1.0]hexan-6-yl)-7-fluoro-1-isopropyl-1H-pyrazolo[4,3-c]pyridin-6-yl)-5-ethynyl-6-fluoronaphthalen-2-ol] gave a Kd on NRAS G12D C118S of 0.824 µM. For the same molecule, in assay [1] (Homo sapiens, THP-1, 2 h), the IC50 came out at 10.7 µM.
Taken in the same sequence, the figures for `C#Cc1c(F)ccc2cc(O)cc(-c3nc(OC4CNC4)c4c([C@H]5[C@@H]6CNC[C@@H]65)nn(C5CC5)c4c3F)c12` [Example 69, 4-(4-(azetidin-3-yloxy)-3-((1R,5S,6r)-3-azabicyclo[3.1.0]hexan-6-yl)-1-cyclopropyl-7-fluoro-1H-pyrazolo[4,3-c]pyridin-6-yl)-5-ethynyl-6-fluoronaphthalen-2-ol] were 1.79 µM and over 10 µM.
Consider `C#Cc1c(F)ccc2cc(O)cc(-c3ncc4c(N5CC(N(C)C)C5)nn(C)c4c3F)c12` [Example 33, 4-[3-[3-(dimethylamino)azetidin-1-yl]-7-fluoro-1-methyl-pyrazolo[4,3-c]pyridin-6-yl]-5-ethynyl-6-fluoro-naphthalen-2-ol], for which the Kd on NRAS G12D C118S amounted to 8.75 µM. Besides, the IC50 in assay [1] (Homo sapiens, THP-1, 2 h) was over 50 µM.
The molecule `C#Cc1c(F)ccc2cc(O)cc(-c3ncc4c([C@H]5[C@@H]6CNC[C@@H]65)nn(CC)c4c3F)c12` [Example 20, 4-(3-((1R,5S,6r)-3-azabicyclo[3.1.0]hexan-6-yl)-1-ethyl-7-fluoro-1H-pyrazolo[4,3-c]pyridin-6-yl)-5-ethynyl-6-fluoronaphthalen-2-ol] registered a Kd on NRAS G12D C118S of 0.159 µM. That is a sub-micromolar value.
The same measure, in the same setting: then `C#Cc1c(F)ccc2cc(O)cc(-c3cc4c(cn3)c(N3CC5CCC(C3)N5)nn4CC)c12` [Example 6, 4-(3-(3,8-diazabicyclo[3.2.1]octan-3-yl)-1-ethyl-1H-pyrazolo[4,3-c]pyridin-6-yl)-5-ethynyl-6-fluoronaphthalen-2-ol], with 8.2 µM; and `C#Cc1c(F)ccc2cc(O)cc(-c3cc4c(cn3)c([C@H]3[C@@H]5CNC[C@@H]53)cn4C)c12` [Example 22, 4-(3-((1R,5S,6s)-3-azabicyclo[3.1.0]hexan-6-yl)-1-methyl-1H-pyrrolo[3,2-c]pyridin-6-yl)-5-ethynyl-6-fluoronaphthalen-2-ol], with 1.64 µM; and `C#Cc1c(F)ccc2cc(O)cc(-c3ncc4c(C5=CC6CCC(C5)N6)nn(CC)c4c3F)c12` (centres unmarked) [Example 9, 4-(3-(8-azabicyclo[3.2.1]oct-2-en-3-yl)-1-ethyl-7-fluoro-1H-pyrazolo[4,3-c]pyridin-6-yl)-5-ethynyl-6-fluoronaphthalen-2-ol], with 16.2 µM.
For the molecule `C#Cc1c(F)ccc2cc(O)cc(-c3ncc4c(N[C@H]5[C@@H]6CNC[C@@H]65)nn(CC)c4c3F)c12` [Example 11, 4-(3-(((1R,5S,6s)-3-azabicyclo[3.1.0]hexan-6-yl)amino)-1-ethyl-7-fluoro-1H-pyrazolo[4,3-c]pyridin-6-yl)-5-ethynyl-6-fluoronaphthalen-2-ol], the affinity on NRAS G12D C118S, expressed as Kd, was 31 µM. Against the preceding molecule, the Kd is about 1.9-fold higher.
Consider `C#Cc1c(F)ccc2cc(O)cc(-c3ncc4c(N5CC6CCC(C5)N6)nn(CC5CCOC5)c4c3F)c12` (centres unmarked) [Example 15, 4-(3-(3,8-diazabicyclo[3.2.1]octan-3-yl)-7-fluoro-1-((tetrahydrofuran-3-yl)methyl)-1H-pyrazolo[4,3-c]pyridin-6-yl)-5-ethynyl-6-fluoronaphthalen-2-ol], for which the Kd at NRAS G12D C118S was determined as 5.97 µM.
